According to patent US8183296B2, “Pesticide phenyloxy substituted phenylamidine derivatives” (Bayer Cropscience AG, priority 2005, dated 2012):
Values belong to the compound of their own block, whether it stands above or below them.

Tests used:
[1] = logP by HPLC on reversed-phase column (C 18), EEC Directive 79/831 Annex V.A8; type: physicochemical
[2] = as above; type: physicochemical; settings: reversed-phase HPLC column (C 18), C 18, 40° C., 0.1% aqueous formic acid and acetonitrile, read-out: logPa
Protocol: Temperature: 40° C.; Mobile phases: 0.1% aqueous formic acid and acetonitrile; linear gradient from 10% acetonitrile to 90% acetonitrile.
Calibration was carried out using unbranched alkan-2-ones (comprising 3 to 16 carbon atoms) with known logP values (determination of the logP values by the retention times using linear interpolation between two successive alkanones).

[3] = system: Puccinia recondita f. Sp. tritici; test: In vivo preventive test on Puccinia recondita f. Sp. tritici (wheat brown rust); settings: topical, 240 h, 1000 ppm of active ingredient, evaluated 10 days after inoculation, read-out: efficacy
Protocol: In Vivo Preventive Test on Puccinia recondita f. Sp. tritici (Wheat Brown Rust)
(§1) To produce a suitable preparation of active compound, 1 part by weight of active compound is mixed with the stated amounts of solvent and emulsifier, and the concentrate is diluted with water to the desired concentration.
To test for preventive activity, young plants are […]. After the spray coating has dried on, the plants are sprayed with the preparation of active compound at the stated rate of application. The plants remain for 24 hours in an incubation cabinet at 20° C. and a relative atmospheric humidity of 100%.
The plants are placed in a greenhouse at a temperature of approximately 20° C. and a relative atmospheric humidity of approximately 80% to promote the development of rust pustules.
The test is evaluated 10 days after the inoculation. 0% means an efficacy which corresponds to that of the control, while an efficacy of 100% means that no disease is observed.

[4] = system: Erysiphe graminis f.sp. hordei; test: In vivo preventive test on Erysiphe graminis (powdery mildew on barley); settings: Blumeria graminis, topical, 168 h, 1000 ppm of active ingredient, evaluated 7 days after inoculation, read-out: efficacy
Protocol: In Vivo Preventive Test on Erysiphe gramini (Powdery Mildew on Barley)
To produce a suitable preparation of active compound, 1 part by weight of active compound or active compound combination is mixed with the stated amounts of solvent and emulsifier, and the concentrate is diluted with water to the desired concentration.
To test for preventive activity, young plants are sprayed with the preparation of active compound or active compound combination at the stated rate of application.
After the spray coating has dried on, the plants are dusted with spores of Erysiphe graminis f.sp. hordei
The plants are placed in a greenhouse at a temperature of approximately 20° C. and a relative atmospheric humidity of approximately 80% to promote the development of mildew pustules.
(§2) The test is evaluated 7 days after the inoculation. 0% means an efficacy which corresponds to that of the control, while an efficacy of 100% means that no disease is observed.

[5] = system: Alternaria solani; test: In vivo protective test on Alternaria solani (leaf spot of tomato); settings: topical, 168 h, 500 ppm of active ingredient, evaluated 7 days after inoculation, read-out: efficacy
Protocol: In Vivo Protective Test on Alternaria solani (Leaf Spot of Tomato)
as §1
To test for protective activity, young plants are sprayed with the preparation of active compound at the stated rate of application. After the spray coating has dried on, the plants are inoculated with an aqueous spore suspension of Alternatia solani. The plants remain for one day in an incubation cabinet at approximately 20° C. and a relative atmospheric humidity of 100%. Then the plants are placed in an incubation cabinet at approximately 20° C. and a relative atmospheric humidity of 96%.
The test is evaluated 7 days after the inoculation. 0% means an efficacy which corresponds to that of the control while an efficacy of 100% means that no disease is observed.

[6] = system: Podosphaera leucotricha; test: In vivo protective test on Podosphaera leucotricha (apples); settings: topical, 240 h, 100 ppm of active ingredient, evaluated 10 days after inoculation, read-out: efficacy
Excerpt: In Vivo Protective Test on Podosphaera leucotricha (Apples) [table] […] To test for protective activity, young plants are sprayed with the preparation of active compound at the stated rate of application. After the spray coating has dried on, the plants are inoculated with an aqueous spore suspension of the causal agent of apple mildew (Podosphaera leucotricha).

[7] = system: Sphaerotheca fuliginea; test: In vivo protective test on Sphaerotheca fuliginea (cucumbers); settings: Podosphaera fuliginea, topical, 168 h, 100 ppm of active ingredient, evaluated 7 days after inoculation, read-out: efficacy
Protocol: In Vivo Protective Test on Sahaerotheca fuliginea (Cucumbers)
as §1
To test for protect activity, young plants are sprayed with the preparation of active compound at the stated rate of application. After the spray coating has dried on, the plants are inoculated with an aqueous spore suspension of Sphaerotheca fuliginea. The plants are then placed in a greenhouse at approximately 23° C. and a relative atmospheric humidity of approximately 70%.
as §2

[8] = system: Aedes aegypti larvae; test: In vivo protective test on Aedes aegypti (AEDSAE U)
Protocol: In Vivo Protective Test on Aedes Aegypti (AEDSAE U)
To produce a suitable preparation of the active compound, the active compound is mixed with the stated amount of solvent, and the concentrate is diluted with staining water to the desired concentration.
Aedes aegypti larvae are pipetted with a preparation of active ingredient of the desired concentration.
After the specified period of time, mortality in % is determined. 100% means that all larvae have been killed, a 0% means that none of the larvae have been killed.

[9] = system: eggs of cotton bollworm (Heliothis virescens); test: In vivo protective test on Heliothis virescens (HELIVI U); settings: soybean leaf sections infested with Heliothis virescens eggs
Excerpt: In Vivo Protective Test on Heliothis virescens (HELIVI U)
To produce a suitable preparation of the active compound, 1 part by weight of active compound is mixed with the stated amount of solvent and emulsifier, and the concentrate is dilutes with emulsifier-containing water to the desired concentration.
Soybean (Glycine max.) leaf sections are sprayed with a preparation of the active ingredient of the desired concentration. Once dry, the leaf sections are infested with eggs of cotton bollworm (Heliotis virescens).
After the specified period of time, mortality in % is determined. 100% means that all eggs have been killed and 0% means that none of the eggs have been killed.

[10] = system: mosquito larvae (Aedes aegypti); test: In vivo protective test on Aedes aegypti (AEDSAE MO); settings: Aedes aegypti third larvae
Protocol: In Vivo Protective Test on Aedes aegypti (AEDSAE MO)
To produce a suitable preparation of active compound, 1 part by weight of active compound is mixed with the stated amount of solvent, and the concentrate is diluted with water to the desired concentration.
10 to 20 third mosquito larvae (Aedes aegypti) are added to the well and incubated.
After the specified period of time, mortality in % is determined. 100% means that all of the larvae have been killed; 0% means that none of the larvae have been killed.

Structure (SMILES): Cc1cc(Oc2ccc(Cl)c(C(C)(C)C)c2)c(Cl)cc1N [4-(3-t-butyl-4-chlorohenoxy)-5-chloro-2-methylaniline]
log P (pH 2.3) [1]: 5.68

Structure (SMILES): Cc1cc([N+](=O)[O-])c(C)cc1Oc1ccc(Cl)c(C(C)(C)C)c1 [4-(3-t-butyl-4-chlorphenoxy)-2,5-dimethylnitrobenzene]
log P (pH 2.3) [1]: 6.32

Structure (SMILES): CCN(C)C=Nc1cc(Cl)c(Oc2ccc(Cl)c(C(C)(C)C)c2)cc1C [Example 1, N-Ethyl-N-methyl-N′-[4-(3-t-butyl-4-chlorphenoxy)-5-chloro-2-methylphenyl]formamidine]
log P (pH 2.3) [1]: 2.80

Structure (SMILES): Cc1cc(Oc2ccc(Br)c(C(C)C)c2)c(C)cc1/N=C/N(C)C(C)C [Example 18]
chromatographic logP [2]: 3.34
pest or weed control at 1000 ppm [3]: ≥ 70%
pest or weed control at 1000 ppm [4]: ≥ 70%
pest or weed control at 500 ppm [5]: ≥ 70%
pest or weed control at 100 ppm [6]: ≥ 70%
pest or weed control at 100 ppm [7]: ≥ 70%
activity (mortality of eggs) [9]: good activity
activity (mortality of larvae) [10]: good activity

Further lines, with some results ahead:

log P (pH 2.3) [1]: 4.38
Structure (SMILES): Cc1cc(Oc2ccc(Cl)c(C(C)(C)C)c2)c(C)cc1N [4-(3-t-butyl-4-chlorphenoxy)-2,5-xylidine]

log P (pH 2.3) [1]: 6.32
Structure (SMILES): Cc1cc(Oc2ccc(Cl)c(C(C)(C)C)c2)c(Cl)cc1[N+](=O)[O-] [4-(3-t-butyl-4-chlorphenoxy)-5-chloro-2-methylnitrobenzene]

log P (pH 2.3) [1]: 3.04
Structure (SMILES): CCN(C)C=Nc1cc(C)c(Oc2ccc(Cl)c(C(C)(C)C)c2)cc1C [Example 2, N-Ethyl-N-methyl-N′-[4-(3-t-butyl-4-chlorphenoxy)-2,5-xylyl]formamidine]

chromatographic logP [2]: 2.75
Structure (SMILES): CCN(C)/C=N/c1cc(C)c(Oc2ccc(Cl)c(C(C)C)c2)cc1C [Example 3]
pest or weed control at 1000 ppm [3]: ≥ 70%
pest or weed control at 1000 ppm [4]: ≥ 70%
pest or weed control at 500 ppm [5]: ≥ 70%
pest or weed control at 100 ppm [6]: ≥ 70%
pest or weed control at 100 ppm [7]: ≥ 70%
activity (mortality of larvae) [8]: good activity
